# Test results taken from PubChem BioAssay AID248 (DTP/NCI, 2004).
# Values joined by “and” are separate entries in the source; they are usually repeats but may differ in a detail not shown here. Identical values can stand only once. Toxic doses and inconclusive results are not listed.
# Test system: L1210 leukemia ip in BDF1 mice, survival T/C
# Assay: NCI In Vivo Anticancer Drug Screen. Data for tumor model L1210 Leukemia (intraperitoneal) in B6D2F1 (BDF1) mice
# Conditions: endpoint: mean survival time, higher = longer survival
# In short: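 Ratio derived from survival: compound-dosed mice over vehicle-dosed mice, all bearing a transplantable tumor.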
# [1] = dose: 50.0 mg/kg/injection, schedule: Q01DX009 (ip), vehicle: saline
# [2] = dose: 100.0 mg/kg/injection, schedule: Q01DX009 (ip), vehicle: saline
# [3] = dose: 100.0 mg/kg/injection, schedule: Q04DX003 (ip), vehicle: saline
# [4] = dose: 200.0 mg/kg/injection, schedule: Q04DX003 (ip), vehicle: saline
# [5] = dose: 100.0 mg/kg/injection, schedule: Q01DX001 (ip), vehicle: saline
# [6] = dose: 200.0 mg/kg/injection, schedule: Q01DX001 (ip), vehicle: saline
# [7] = dose: 200.0 mg/kg/injection, schedule: Q01DX009 (ip), vehicle: saline
# [8] = dose: 400.0 mg/kg/injection, schedule: Q01DX001 (ip), vehicle: saline
# [9] = dose: 100.0 mg/kg/injection, schedule: Q01DX001 (ip), vehicle: carboxymethylcellulose (CMC)
# [10] = dose: 100.0 mg/kg/injection, schedule: Q01DX009 (ip), vehicle: carboxymethylcellulose (CMC)
# [11] = dose: 100.0 mg/kg/injection, schedule: Q04DX003 (ip), vehicle: carboxymethylcellulose (CMC)
# [12] = dose: 200.0 mg/kg/injection, schedule: Q01DX001 (ip), vehicle: carboxymethylcellulose (CMC)
# [13] = dose: 200.0 mg/kg/injection, schedule: Q01DX009 (ip), vehicle: carboxymethylcellulose (CMC)
# [14] = dose: 200.0 mg/kg/injection, schedule: Q04DX003 (ip), vehicle: carboxymethylcellulose (CMC)
# [15] = dose: 400.0 mg/kg/injection, schedule: Q01DX001 (ip), vehicle: carboxymethylcellulose (CMC)
# [16] = dose: 400.0 mg/kg/injection, schedule: Q01DX009 (ip), vehicle: carboxymethylcellulose (CMC)
# [17] = dose: 400.0 mg/kg/injection, schedule: Q04DX003 (ip), vehicle: carboxymethylcellulose (CMC)
# [18] = dose: 100.0 mg/kg/injection, schedule: Q04DX003 (ip), vehicle: saline with Tween-80
# [19] = dose: 200.0 mg/kg/injection, schedule: Q04DX003 (ip), vehicle: saline with Tween-80
# [20] = dose: 400.0 mg/kg/injection, schedule: Q04DX003 (ip), vehicle: saline with Tween-80
# [21] = dose: 100.0 mg/kg/injection, schedule: Q04DX003 (ip), vehicle: Klucel (hydroxypropylcellulose) (HPC)
# [22] = dose: 200.0 mg/kg/injection, schedule: Q04DX003 (ip), vehicle: Klucel (hydroxypropylcellulose) (HPC)
# [23] = dose: 400.0 mg/kg/injection, schedule: Q04DX003 (ip), vehicle: Klucel (hydroxypropylcellulose) (HPC)
# [24] = dose: 400.0 mg/kg/injection, schedule: Q01DX009 (ip), vehicle: saline
# [25] = dose: 100.0 mg/kg/injection, schedule: Q04DX002 (ip), vehicle: Klucel (hydroxypropylcellulose) (HPC)
# [26] = dose: 200.0 mg/kg/injection, schedule: Q04DX002 (ip), vehicle: Klucel (hydroxypropylcellulose) (HPC)
# [27] = dose: 400.0 mg/kg/injection, schedule: Q04DX002 (ip), vehicle: Klucel (hydroxypropylcellulose) (HPC)
smiles,measurement,setting,value
C/C=C\C=N\N(C)C,T/C,[1],110 % of control
same,T/C,[2],106 % of control
same,T/C,[3],102 % of control
same,T/C,[4],97 % of control
Cc1ccc(S(=O)(=O)N/N=C2/C3CC4C(C3)C24)cc1,T/C,[5],90 % of control
same,T/C,[6],88 % of control
same,T/C,[7],92 % of control
same,T/C,[8],103 % of control
CC(=O)Nc1ccc(NC(=O)Nc2ccc(Cl)cc2)cc1,T/C,"dose: 25.0 mg/kg/injection, schedule: Q01DX001 (ip), vehicle: carboxymethylcellulose (CMC)",92 % of control and 90 % of control
same,T/C,"dose: 50.0 mg/kg/injection, schedule: Q01DX001 (ip), vehicle: carboxymethylcellulose (CMC)",93 % of control and 97 % of control
same,T/C,[9],95 % of control and 101 % of control and 87 % of control
same,T/C,[10],93 % of control and 94 % of control
same,T/C,[11],87 % of control and 88 % of control
same,T/C,[12],94 % of control
same,T/C,[13],92 % of control and 94 % of control
same,T/C,[14],92 % of control and 90 % of control
same,T/C,[15],95 % of control
same,T/C,[16],104 % of control and 122 % of control
same,T/C,[17],98 % of control and 87 % of control
COc1ccc(N2CCN(/C=C/C(=O)c3ccc(C)cc3C)CC2)cc1,T/C,[18],97 % of control
same,T/C,[19],95 % of control
same,T/C,[20],106 % of control
CC(=O)c1cccc(NC(=O)Nc2ccc(Nc3ccccc3)cc2)c1,T/C,"dose: 100.0 mg/kg/injection, schedule: Q01DX009 (ip), vehicle: other",103 % of control
same,T/C,"dose: 200.0 mg/kg/injection, schedule: Q01DX009 (ip), vehicle: other",101 % of control
same,T/C,"dose: 400.0 mg/kg/injection, schedule: Q01DX009 (ip), vehicle: other",93 % of control
Clc1ccc2c(c1)Cc1cc(Cl)cc(Cl)c1-2,T/C,[21],98 % of control
same,T/C,[22],100 % of control
same,T/C,[23],96 % of control
Cc1c2ccnc(-c3ccccc3)c2cc2c1[nH]c1ccccc12,T/C,"dose: 31.3 mg/kg/injection, schedule: Q01DX Z (ip), vehicle: other",98 % of control
same,T/C,"dose: 62.5 mg/kg/injection, schedule: Q01DX Z (ip), vehicle: other",101 % of control
same,T/C,[9],108 % of control
same,T/C,"dose: 125.0 mg/kg/injection, schedule: Q01DX015 (oral), vehicle: carboxymethylcellulose (CMC)",102 % of control
same,T/C,"dose: 125.0 mg/kg/injection, schedule: Q01DX Z (ip), vehicle: other",101 % of control
same,T/C,[12],103 % of control
same,T/C,"dose: 250.0 mg/kg/injection, schedule: Q01DX015 (oral), vehicle: carboxymethylcellulose (CMC)",93 % of control
same,T/C,"dose: 250.0 mg/kg/injection, schedule: Q01DX Z (ip), vehicle: other",91 % of control
same,T/C,[15],97 % of control
same,T/C,"dose: 500.0 mg/kg/injection, schedule: Q01DX015 (oral), vehicle: carboxymethylcellulose (CMC)",93 % of control
C[n+]1c(-c2cc(Cl)cc(Cl)c2)c2cc([N+](=O)[O-])ccc2c2ccccc21,T/C,"dose: 50.0 mg/kg/injection, schedule: Q01DX009 (ip), vehicle: water",109 % of control
same,T/C,"dose: 100.0 mg/kg/injection, schedule: Q01DX009 (ip), vehicle: water",96 % of control
same,T/C,"dose: 100.0 mg/kg/injection, schedule: Q04DX003 (ip), vehicle: water",92 % of control
same,T/C,"dose: 200.0 mg/kg/injection, schedule: Q01DX009 (ip), vehicle: water",98 % of control
same,T/C,"dose: 200.0 mg/kg/injection, schedule: Q04DX003 (ip), vehicle: water",96 % of control
same,T/C,"dose: 400.0 mg/kg/injection, schedule: Q04DX003 (ip), vehicle: water",93 % of control
Cc1onc(-c2ccccc2Cl)c1C(=O)NC(N)=S,T/C,[2],103 % of control
same,T/C,[7],101 % of control
same,T/C,[24],104 % of control
O=C(COc1ccc(Cl)c(Cl)c1)N(Cc1ccccc1)Cc1ccc[n+](Cc2cccc(Cl)c2S(=O)(=O)F)c1,T/C,"dose: 25.0 mg/kg/injection, schedule: Q04DX003 (ip), vehicle: saline with Tween-80",106 % of control
same,T/C,"dose: 50.0 mg/kg/injection, schedule: Q04DX003 (ip), vehicle: saline with Tween-80",96 % of control
[N-]=[N+]=NS(=O)(=O)CCc1ccccc1,T/C,[18],96 % of control
same,T/C,[19],110 % of control
same,T/C,[20],98 % of control
CCOC(C[N+](C)(C)CCC[N+](C)(C)CC(OCC)OCC)OCC,T/C,[5],111 % of control
same,T/C,[6],96 % of control
same,T/C,[8],111 % of control
CCC1CCCC(C(=O)O)N1 (centres undefined),T/C,[2],101 % of control
same,T/C,[3],95 % of control
same,T/C,[7],95 % of control
same,T/C,[4],95 % of control
same,T/C,[24],100 % of control
same,T/C,"dose: 400.0 mg/kg/injection, schedule: Q04DX003 (ip), vehicle: saline",105 % of control
COC(=O)C1C(O)C(C)C(O)C(C)/C=C\C=C(C)C(=O)Nc2c(C)c(OC(C)=O)c3c(c2O)C(=O)C(C)=C2OCOC(=C23)C(C)=CC(C)(O)C(O)C(C)C1O (centres undefined),T/C,[25],104 % of control
same,T/C,[26],101 % of control
same,T/C,[27],90 % of control
Cc1cc(C)c2nc(N)sc2c1,T/C,[18],94 % of control
COC(=O)c1ccc(NCC(C)(C)N)cc1,T/C,"dose: 12.0 mg/kg/injection, schedule: Q01DX001 (ip), vehicle: saline",94 % of control
same,T/C,"dose: 12.0 mg/kg/injection, schedule: Q01DX009 (ip), vehicle: saline",98 % of control
same,T/C,"dose: 12.0 mg/kg/injection, schedule: Q04DX003 (ip), vehicle: saline",97 % of control
same,T/C,"dose: 25.0 mg/kg/injection, schedule: Q01DX001 (ip), vehicle: saline",96 % of control
same,T/C,"dose: 25.0 mg/kg/injection, schedule: Q01DX009 (ip), vehicle: saline",105 % of control
same,T/C,"dose: 25.0 mg/kg/injection, schedule: Q04DX003 (ip), vehicle: saline",104 % of control
same,T/C,"dose: 50.0 mg/kg/injection, schedule: Q01DX001 (ip), vehicle: saline",101 % of control
same,T/C,[1],93 % of control
same,T/C,"dose: 50.0 mg/kg/injection, schedule: Q04DX003 (ip), vehicle: saline",97 % of control
COc1cc(C=Nc2ccc3c(c2)nc(C)n3C)ccc1N(CCCl)CCCl,T/C,[25],165 % of control
same,T/C,[26],120 % of control
same,T/C,[27],89 % of control
Nc1c(Br)cc(F)cc1[N+](=O)[O-],T/C,[21],97 % of control
same,T/C,[22],96 % of control
same,T/C,[23],96 % of control
C1COB(OCCNCCOB2OCCNCCO2)OCCN1,T/C,[10],100 % of control
same,T/C,"dose: 100.0 mg/kg/injection, schedule: Q04DX002 (ip), vehicle: carboxymethylcellulose (CMC)",98 % of control and 101 % of control
same,T/C,[11],100 % of control
same,T/C,[13],97 % of control and 106 % of control
same,T/C,"dose: 200.0 mg/kg/injection, schedule: Q04DX002 (ip), vehicle: carboxymethylcellulose (CMC)",95 % of control and 103 % of control
same,T/C,[14],104 % of control
same,T/C,[16],100 % of control
same,T/C,"dose: 400.0 mg/kg/injection, schedule: Q04DX002 (ip), vehicle: carboxymethylcellulose (CMC)",103 % of control and 106 % of control
same,T/C,[17],100 % of control
CN1CCN(CCSC(=O)N2c3ccccc3Sc3ccc(Cl)cc32)CC1,T/C,"dose: 75.0 mg/kg/injection, schedule: Q01DX001 (ip), vehicle: saline",94 % of control
O=C(c1ccccc1)C(CBr)C(Br)c1ccccc1 (centres undefined),T/C,"dose: 100.0 mg/kg/injection, schedule: Q01DX009 (ip), vehicle: Klucel (hydroxypropylcellulose) (HPC)",90 % of control
same,T/C,[21],98 % of control
same,T/C,"dose: 200.0 mg/kg/injection, schedule: Q01DX009 (ip), vehicle: Klucel (hydroxypropylcellulose) (HPC)",101 % of control
same,T/C,[22],95 % of control
same,T/C,"dose: 400.0 mg/kg/injection, schedule: Q01DX009 (ip), vehicle: Klucel (hydroxypropylcellulose) (HPC)",93 % of control
same,T/C,[23],88 % of control
COC(OC)C1OC(C)(C)OC1C(OS(=O)(=O)c1ccc(C)cc1)C1COC(C)(C)O1 (centres undefined),T/C,[18],97 % of control
same,T/C,[19],91 % of control
same,T/C,[20],89 % of control
